Converted amounts (≈) assume the structure as drawn. Like-named read-outs stand apart in the source and are kept apart here.
Legend:
Assay type in all cases: cell-based
[1] = system: colistin resistant MCR (+) E. Coli strains; experiment: Synergy study: colistin MIC in the presence of compound
Experimental: (§1) The MICs of the individual drugs and LC compound in combinations were determined using the broth microdilution technique as recommended by the CLSI whereby the two anti-microbial agents were added in an equal amount. (e.g.: 50 μL of Colistin: 50 μL of LC compounds). Diluted media containing compounds and antibiotics will be serially diluted 2-fold, and LC compounds and antibiotics alone or in combination will be assayed at fixed synergy concentration. In all cases, the lowest concentration at which no visible growth occurred was be recorded to be the MIC value of individual and combined antibacterial agents. The results were obtained after 24 hours of incubation.

[2] = system: colistin resistant MCR (−) E. Coli strains; experiment: as above
Experimental: as §1

[3] = system: colistin resistant MCR (−) E. Cloacae strain 7023456439; experiment: as above; conditions: strain 7023456439 E. Cloacae
Experimental: as §1

[4] = system: colistin resistant MCR (+) E. Coli strains; experiment: MIC, broth microdilution, compound alone; conditions: compound alone
Experimental: (§2) MIC experiments of the antimicrobial agents were determined by a modified broth microdilution method in accordance with the Clinical and Laboratory Standards Institute (CLSI) guidelines using 96 well culture plates. In brief, serial dilutions of all plates were prepared at different concentrations (μg). The inoculum suspension was prepared by adding isolated colonies from a 18-20 hours on TSA plate into phosphate buffer (0.31 mM, pH 7.2) or in water for injection (BBraun) and adjusting the suspension to a turbidity equivalent to 0.5 McFarland Standard. Each well contained a final bacterial concentration of approximately 5×10^5 colony forming units (CFU)/mL. The plate was covered and incubated at 35° C. for 24 hours. […] For the microdilution plates, turbidity in wells can be measured at OD600 using TECAN infinite M200Pro. MIC was determined as […] concentration that gives a 99 percent inhibition.

[5] = system: colistin resistant MCR (−) E. Coli strains; experiment: MIC, broth microdilution, compound alone
Experimental: as §2

[6] = system: colistin resistant MCR (−) E. Cloacae strain 7023456439; experiment: MIC, broth microdilution, compound alone; conditions: strain 7023456439 E. Cloacae
Experimental: as §2

[7] = strain 6083672926, MCR(−), compound at 10 μg (Table 2a: 10 ug/ml)
[8] = strain 7023446108, MCR(−), compound at 10 μg (Table 2a: 10 ug/ml)
[9] = strain 7033607097, MCR(−), compound at 10 μg (Table 2a: 10 ug/ml)
[10] = compound at 10 μg (Table 2a: 10 ug/ml)
[11] = strain 6083672926, MCR(−), compound at 5 μg (Table 2a: 5 ug/ml)
[12] = strain 7023446108, MCR(−), compound at 5 μg (Table 2a: 5 ug/ml)
[13] = strain 7033607097, MCR(−), compound at 5 μg (Table 2a: 5 ug/ml)
[14] = compound at 5 μg (Table 2a: 5 ug/ml)

SMILES | MIC ([4]; strain 6083655967, MCR (+)) | MIC ([4]; strain 6103645107, MCR (+)) | MIC ([4]; strain 6123520276, MCR (+)) | MIC ([4]; strain 7013177695, MCR (+)) | MIC ([4]; strain 7023436560, MCR (+)) | MIC ([4]; strain 7023444207, MCR (+)) | MIC ([5]; strain 6083672926, MCR (−)) | MIC ([5]; strain 7033607097, MCR (−)) | Colistin MIC in the presence of the compound [2, 7] | Colistin MIC in the presence of the compound [2, 8] | Colistin MIC in the presence of the compound [2, 9] | Colistin MIC in the presence of the compound [3, 10] | MIC ([4]; strain 6075066346, MCR (+)) | MIC ([5]; strain 7023446108, MCR (−)) | MIC [6] | Colistin MIC in the presence of the compound [2, 11] | Colistin MIC in the presence of the compound [2, 12] | Colistin MIC in the presence of the compound [2, 13] | Colistin MIC in the presence of the compound [3, 14] | other results
O=C(O)CN(CCN(CC(=O)O)CC(=O)O)CC(=O)O [EDTA, Ethylenediaminetetraacetic acid, reference compound] | >250 µg/mL | >250 µg/mL | >250 µg/mL | >250 µg/mL | >250 µg/mL | >250 µg/mL | >250 µg/mL | >250 µg/mL | – | – | – | – | – | – | – | – | – | – | – | concentration at which the compound shows synergy with colistin ([1]; against mcr-1 bacteria): higher than 250 μg/ml; Colistin MIC in the presence of the compound ([1]; strain 6083655967, MCR(+), compound at 250 ug/ml): 0.78 µg/mL; Colistin MIC in the presence of the compound ([1]; strain 6103645107, MCR(+), compound at 250 ug/ml): 0.39 µg/mL; Colistin MIC in the presence of the compound ([1]; strain 6123520276, MCR(+), compound at 250 ug/ml): 0.78 µg/mL; Colistin MIC in the presence of the compound ([1]; strain 7013177695, MCR(+), compound at 250 ug/ml): 0.78 µg/mL; Colistin MIC in the presence of the compound ([1]; strain 7023436560, MCR(+), compound at 250 ug/ml): 0.39 µg/mL; Colistin MIC in the presence of the compound ([2]; strain 6083672926, MCR(−), compound at 250 ug/ml): 0.78 µg/mL; Colistin MIC in the presence of the compound ([2]; strain 7023446108, MCR(−), compound at 250 ug/ml): 0.39 µg/mL; Colistin MIC in the presence of the compound ([2]; strain 7033607097, MCR(−), compound at 250 ug/ml): 0.195 µg/mL; Colistin MIC in the presence of the compound ([3]; compound at 250 ug/ml): 3.125 µg/mL; MIC ([4]; Escherichia coli, strain 6075066346, MCR (+), read-out: MIC): > 250 µg/mL; MIC ([5]; Escherichia coli, strain 7023446108, MCR (−), read-out: MIC): > 250 µg/mL; MIC ([6]; Enterobacter cloacae, read-out: MIC): > 250 µg/mL
CN(C)CCCN(CCCCOc1ccc(C2COc3c(ccc4c3C=CC(C)(C)O4)C2)c(OCCCCN(CCCN(C)C)CCCN(C)C)c1)CCCN(C)C (centres unmarked) [LC095] | 50 µg/mL (≈ 61.9 µM) | 25 µg/mL (≈ 31 µM) | 50 µg/mL (≈ 61.9 µM) | 25 µg/mL (≈ 31 µM) | 25 µg/mL (≈ 31 µM) | 25 µg/mL (≈ 31 µM) | 25 µg/mL (≈ 31 µM) | 25 µg/mL (≈ 31 µM) | 12.5 µg/mL | 3.125 µg/mL | 3.125 µg/mL | >12.5 µg/mL | 50 µg/mL (≈ 61.9 µM) | 25 µg/mL (≈ 31 µM) | >50 µg/mL | – | – | – | – | Colistin MIC in the presence of the compound ([1]; strain 6075066346, MCR(+), compound at 10 μg (Table 2a: 10 ug/ml)): 3.125 µg/mL; Colistin MIC in the presence of the compound ([1]; strain 6083655967, MCR(+), compound at 10 μg (Table 2a: 10 ug/ml)): 3.125 µg/mL; Colistin MIC in the presence of the compound ([1]; strain 6103645107, MCR(+), compound at 10 μg (Table 2a: 10 ug/ml)): 3.125 µg/mL; Colistin MIC in the presence of the compound ([1]; strain 6123520276, MCR(+), compound at 10 μg (Table 2a: 10 ug/ml)): 1.56 µg/mL; Colistin MIC in the presence of the compound ([1]; strain 7013177695, MCR(+), compound at 10 μg (Table 2a: 10 ug/ml)): 3.125 µg/mL; Colistin MIC in the presence of the compound ([1]; strain 7023436560, MCR(+), compound at 10 μg (Table 2a: 10 ug/ml)): 3.125 µg/mL; Colistin MIC in the presence of the compound ([1]; strain 7023444207, MCR(+), compound at 10 μg (Table 2a: 10 ug/ml)): 1.56 µg/mL
CN(C)CCCN(C)CCCCOc1ccc(C2COc3c(ccc4c3C=CC(C)(C)O4)C2)c(OCCCCN(C)CCCN(C)C)c1 (centres unmarked) [LC096] | 25 µg/mL (≈ 37.6 µM) | 12.5 µg/mL (≈ 18.8 µM) | 25 µg/mL (≈ 37.6 µM) | 25 µg/mL (≈ 37.6 µM) | 25 µg/mL (≈ 37.6 µM) | 25 µg/mL (≈ 37.6 µM) | 12.5 µg/mL (≈ 18.8 µM) | 12.5 µg/mL (≈ 18.8 µM) | – | – | – | – | 25 µg/mL (≈ 37.6 µM) | 25 µg/mL (≈ 37.6 µM) | >25 µg/mL | <0.195 µg/mL | <0.195 µg/mL | <0.195 µg/mL | >25 µg/mL | Colistin MIC in the presence of the compound ([1]; strain 6075066346, MCR(+), compound at 5 μg (Table 2a: 5 ug/ml)): <0.195 µg/mL; Colistin MIC in the presence of the compound ([1]; strain 6083655967, MCR(+), compound at 5 μg (Table 2a: 5 ug/ml)): <0.195 µg/mL; Colistin MIC in the presence of the compound ([1]; strain 6103645107, MCR(+), compound at 5 μg (Table 2a: 5 ug/ml)): <0.195 µg/mL; Colistin MIC in the presence of the compound ([1]; strain 6123520276, MCR(+), compound at 5 μg (Table 2a: 5 ug/ml)): <0.195 µg/mL; Colistin MIC in the presence of the compound ([1]; strain 7013177695, MCR(+), compound at 5 μg (Table 2a: 5 ug/ml)): <0.195 µg/mL; Colistin MIC in the presence of the compound ([1]; strain 7023436560, MCR(+), compound at 5 μg (Table 2a: 5 ug/ml)): <0.195 µg/mL; Colistin MIC in the presence of the compound ([1]; strain 7023444207, MCR(+), compound at 5 μg (Table 2a: 5 ug/ml)): <0.195 µg/mL
CC[N+](CC)(CC)CCCCOc1ccc(/C=C/C(=O)c2ccc(OCCCC[N+](CC)(CC)CC)c(CC=C(C)C)c2O)cc1 [LC315] | 6.25 µg/mL | 6.25 µg/mL | 12.5 µg/mL | 12.5 µg/mL | 6.25 µg/mL | 12.5 µg/mL | 25 µg/mL | 12.5 µg/mL | – | – | – | – | 6.25 µg/mL | 12.5 µg/mL | >50 µg/mL | <0.0975 µg/mL | <0.0975 µg/mL | <0.0975 µg/mL | >12.5 µg/mL | –
CC[N+](CC)(CC)CCCCOc1ccc(C2COc3c(ccc4c3C=CC(C)(C)O4)C2)c(OCCCC[N+](CC)(CC)CC)c1 (centres unmarked) [LC317] | 50 µg/mL | 50 µg/mL | >50 µg/mL | 50 µg/mL | 50 µg/mL | 50 µg/mL | >50 µg/mL | >50 µg/mL | 1.56 µg/mL | 1.56 µg/mL | 1.56 µg/mL | >12.5 µg/mL | 50 µg/mL | 50 µg/mL | >50 µg/mL | – | – | – | – | –
Cc1cc(OCCCCN(Cc2ccccn2)Cc2ccccn2)cc(OCCCCN(Cc2ccccn2)Cc2ccccn2)c1.[Cl][Zn][Cl].[Cl][Zn][Cl] [Orc-DPA-Zn] | 50 µg/mL | >50 µg/mL | 50 µg/mL | 50 µg/mL | 50 µg/mL | 50 µg/mL | 50 µg/mL | 50 µg/mL | – | – | – | – | 50 µg/mL | 50 µg/mL | >50 µg/mL | – | – | – | – | Colistin MIC in the presence of the compound ([2]; strain 6083672926, MCR(−), compound at 50 ug/ml): <0.195 µg/mL; Colistin MIC in the presence of the compound ([2]; strain 7023446108, MCR(−), compound at 50 ug/ml): <0.195 µg/mL; Colistin MIC in the presence of the compound ([2]; strain 7033607097, MCR(−), compound at 50 ug/ml): <0.195 µg/mL; Colistin MIC in the presence of the compound ([3]; compound at 50 ug/ml): <0.195 µg/mL

— US12473250B2, “Molecular design of new antibiotics and antibiotic adjuvants against MCR strains” (priority 2019, dated 2025)
